Results on one compound are retold here after publication PMC6930524, “A Prospective Repurposing of Dantrolene as a Multitarget Agent for Alzheimer’s Disease” (Molecules, 2019).

For experiment [1], the target named is T1, human recombinant AChE (hAChE) (Homo sapiens, UniProt P22303).
T1 construct: purchased Sigma-Aldrich Europe (Milan, Italy)
Kind of experiment: biochemical. In kind it is biochemical. As to the method: An already published method was used to apply the Ellman’s spectrophotometric assay to the 96-well plate technique. […] Experiments were performed in duplicate in transparent, flat-bottomed polystyrene 96-well microtiter plates, and readings made with Tecan Infinite M1000 Pro instrument.

For experiment [2], the target named is T2, beta amyloid peptide 1–40 (Aβ40) (Homo sapiens, UniProt P05067).
T2 construct: beta amyloid peptide 1–40 (Aβ40); purchased Sigma-Aldrich Europe (Milan, Italy)
T2 sequence (P05067 672-711 limits assumed): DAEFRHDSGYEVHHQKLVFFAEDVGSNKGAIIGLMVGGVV
The experiment is described as follows: Inhibition of Aβ40 self-aggregation (ThT fluorescence, 2% HFIP). In kind it is biochemical. The settings on record: inhibitor 100 μM, Aβ40 30 μM. The text has this: As an additional proof of the potential of DAN in interfering with AD-related processes, we investigated the effects on the in vitro self-aggregation of beta amyloid peptide 1–40 (Aβ40) and Tau hexapeptide (306)VQIVYK(311) (PHF6). Aβ40 is used as an in vitro probe of the fibrillization process leading to amyloid fibrils and ultimately to senile plaques in AD [32], while PHF6 represents the highly proaggregating sequence of the repeated domain R3 of Tau protein, responsible of the formation of neurofibrillary tangles and other tauopathies in NDs. With this aim, we developed a fast screening method of Aβ40 aggregation using thioflavin T (ThT) as fluorescent probe and 2% 1,1,1,3,3,3-hexafluoro-2-propanol (HFIP) as aggregation enhancer. Regarding PHF6, we started from an already published methodology for the setup of an in-house method, with 2,2,2-trifluoroethanol (TFE) as the cosolvent. […] Quercetin was used as a standard reference for the inhibition of amyloid aggregation. The concentrations of inhibitors were 100 μM and 25 μM in Aβ40 and in PHF6 assay, respectively. […]
An already established assay was used in a 96-well plate procedure, using HFIP as aggregation enhancer. […] After addition of ThT, the fluorescence was read at 440/485 excitation/emission wavelength. […] Inhibition values were calculated by means of Prism.

Experiment [3] in a line: ABTS radical scavenging assay. The experiment is classed as physicochemical. The settings on record: compound at 0.2·[ABTS+]. The text has this: Starting from these evidences, we tested DAN in two in vitro models of radical scavenging activity, i.e., the 1,1-diphenyl-2-picryl-hydrazyl (DPPH) and 2,2′-azinobis-(3-ethylbenzothiazoline-6-sulfonic acid) (ABTS) free radical production. Both generate stable nitrogen radicals showing high absorption in visible spectrum, thus allowing easy and straightforward spectrophotometric measures. […] It can be assumed that the antioxidant activity of DAN is independent from its radical scavenging properties.
Already published protocols for DPPH and […] radical scavenging were used. The scavenging of the radical DPPH^·, or the monocation radical ABTS^·+, were determined by measuring the loss of absorbance at 515 or 755 nm, respectively. Samples were prepared in clear polystyrene flat-bottomed 96-well microplates. […] A preliminary absorbance reading at 755 nm allowed to determine the actual ABTS^·+ concentration (normally 60–70 μM; extinction coefficient ε = 12,000) and set the final concentration of inhibitors to 0.2[ABTS^·+]. 215 μL of ABTS^·+ solution were mixed with 35 μL of stock solution of inhibitors and the decrease in absorbance was monitored. Antioxidant activity was determined from Equation (2) as the percentage of radical production of inhibitor containing samples, compared with control: % radical production = 100 × ABSsample/ABScontrol(2)

Experiment [4] addresses T3, hMAO A (Homo sapiens, UniProt P21397).
T3 sequence (P21397 1-527): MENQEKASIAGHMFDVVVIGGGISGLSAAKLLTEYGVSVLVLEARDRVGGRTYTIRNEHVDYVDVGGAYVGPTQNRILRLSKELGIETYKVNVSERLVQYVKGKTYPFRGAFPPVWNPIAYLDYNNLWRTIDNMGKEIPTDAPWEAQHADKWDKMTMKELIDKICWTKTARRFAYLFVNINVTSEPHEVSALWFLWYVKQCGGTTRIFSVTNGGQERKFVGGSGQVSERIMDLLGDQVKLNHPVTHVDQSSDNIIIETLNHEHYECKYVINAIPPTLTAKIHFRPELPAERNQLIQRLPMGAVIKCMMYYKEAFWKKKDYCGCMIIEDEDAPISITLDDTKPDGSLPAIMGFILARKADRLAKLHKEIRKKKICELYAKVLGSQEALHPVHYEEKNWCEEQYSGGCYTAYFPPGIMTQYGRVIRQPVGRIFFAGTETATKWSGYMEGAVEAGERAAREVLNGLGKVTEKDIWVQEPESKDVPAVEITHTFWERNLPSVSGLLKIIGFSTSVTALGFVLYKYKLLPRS
Kind of experiment: biochemical.
Protocol: Selectivity over the corresponding isoforms hMAO A and butyrylcholinesterase (hBChE) was also verified.
An already published protocol using human recombinant monoamine oxidases A (250 U/mg) and B (59 U/mg; microsomes from baculovirus infected insect cells) [29] was used by applying a 96-well plate technique (instrument Infinite M1000 Pro, Tecan, Cernusco s.N., Italy). Briefly, compounds at a concentration ranging from 30 to 0.01 μM were preincubated 20 min at 37 °C with substrate kynuramine, in phosphate buffer 8.0 made 0.39 osmolar with KCl. After addition of enzyme and further 30 min of incubation, NaOH was added and the fluorescence read at 310/400 excitation/emission wavelength. Experiments were performed in duplicates in black, flat-bottomed polystyrene 96-well microtiter plates (Greiner Bio-One GmbH, Frickenhausen, Germany). […] Inhibition values and kinetics were calculated by means of Prism (GraphPad Prism version 5.00 for Windows, GraphPad Software, San Diego, CA, USA).

What is called IC50 is the midpoint of a concentration-inhibition curve. One may read the Ki as a measure of affinity in units of concentration, obtained from inhibition or displacement. By inhibition is commonly meant the percentage by which the read-out fell short of the control.

T1 sequence (P22303 32-614): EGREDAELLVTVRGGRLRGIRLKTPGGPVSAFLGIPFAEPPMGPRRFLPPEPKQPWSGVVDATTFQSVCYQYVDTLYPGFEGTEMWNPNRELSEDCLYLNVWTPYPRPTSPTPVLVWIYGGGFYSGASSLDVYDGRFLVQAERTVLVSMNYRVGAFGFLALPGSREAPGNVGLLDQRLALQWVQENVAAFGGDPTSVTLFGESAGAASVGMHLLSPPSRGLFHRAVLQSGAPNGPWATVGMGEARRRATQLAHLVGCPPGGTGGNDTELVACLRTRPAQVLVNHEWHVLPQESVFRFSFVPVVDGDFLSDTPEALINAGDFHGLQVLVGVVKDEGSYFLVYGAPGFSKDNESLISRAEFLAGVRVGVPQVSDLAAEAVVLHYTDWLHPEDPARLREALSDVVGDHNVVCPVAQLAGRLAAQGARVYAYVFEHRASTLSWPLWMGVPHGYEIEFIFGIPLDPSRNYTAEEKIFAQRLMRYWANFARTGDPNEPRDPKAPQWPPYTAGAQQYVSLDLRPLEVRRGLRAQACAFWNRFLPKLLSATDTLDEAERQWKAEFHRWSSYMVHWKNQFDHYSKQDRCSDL

`O=C1CN(/N=C/c2ccc(-c3ccc([N+](=O)[O-])cc3)o2)C(O)=N1` [Dantrolene]: the IC50 was 4.19 ± 0.73 µM in experiment [1] and 14 ± 1 µM in experiment [4]. For the same compound, the hAChE inhibition mechanism entry in experiment [1] (Michaelis–Menten / Lineweaver–Burk, substrate acetylthiocoline) was “noncomp”. In addition, in experiment [1] (fold lower than reference compound galantamine), the “potency of AChE inhibition relative to galantamine” value is reported as “seven-fold lower”. Further, the Ki in experiment [1] (substrate acetylthiocoline, mean ± SEM) is 6.3 ± 0.15 µM. In experiment [2], this compound yielded an inhibition at 100 µM of 56%. The “ABTS radical scavenging activity” value in experiment [3] was “no activity”.
